Data taken from ChEMBL document CHEMBL1150366, “Structural requirements of pyrido[2,3-d]pyrimidin-7-one as CDK4/D inhibitors: 2D autocorrelation, CoMFA and CoMSIA analyses” (Bioorg Med Chem, 2008).

Assay: Binding affinity to CDK4/D

| Compound | log(10'6/IC50) |
| --- | --- |
| CCn1c(=O)ccc2cnc(Nc3ccncc3)nc21 | 2.93 |
| CC(C)CCn1c(=O)ccc2cnc(Nc3ccccc3)nc21 | 3.8 |
| CCn1c(=O)ccc2cnc(NC3CCCCC3)nc21 | 2.48 |
| CN1CCN(c2ccc(Nc3ncc4ccc(=O)n(C5CCCC5)c4n3)cc2)CC1 | 5.05 |
| O=c1ccc2cnc(Nc3ccccc3)nc2n1C1CCCC1 | 3.68 |
| CCn1c(=O)ccc2cnc(Nc3ccc(N4CCOCC4)cc3)nc21 | 3.52 |
| CN1CCN(c2ccc(Nc3ncc4ccc(=O)n(C5CC5)c4n3)cc2)CC1 | 3.85 |
| CCn1c(=O)ccc2cnc(N(C)c3ccccc3)nc21 | 1.4 |
| CCN(CC)CCOc1ccc(Nc2ncc3ccc(=O)n(C4CCCC4)c3n2)cc1 | 6.15 |
| CCn1c(=O)ccc2cnc(Nc3ccc(OC)c(OC)c3)nc21 | 2.39 |
| CC(C)n1c(=O)ccc2cnc(Nc3ccc(N4CCN(C)CC4)cc3)nc21 | 4.49 |
| CCN(CC)CCOc1ccc(Nc2ncc3ccc(=O)n(C(C)C)c3n2)cc1 | 4.35 |
| CCCn1c(=O)ccc2cnc(Nc3ccccc3)nc21 | 3.26 |
| O=c1ccc2cnc(Nc3ccccc3)nc2n1CC1CO1 (centres undefined) | 2.3 |
| O=c1ccc2cnc(Nc3ccccc3)nc2n1CC1CCCCC1 | 1.87 |
| CCn1c(=O)ccc2cnc(Nc3ccc(OCCOC)cc3)nc21 | 2.63 |
| CCN(CC)CCOc1ccc(Nc2ncc3ccc(=O)n(C4CCCCCC4)c3n2)cc1 | 5.4 |
| CCn1c(=O)ccc2cnc(Nc3ccc(F)cc3)nc21 | 2.91 |
| CCCCn1c(=O)ccc2cnc(Nc3ccccc3)nc21 | 2.83 |
| CN1CCN(c2ccc(Nc3ncc4ccc(=O)n(CC(O)CO)c4n3)cc2)CC1 (centres undefined) | 2.78 |
| CCn1c(=O)ccc2cnc(NC(C)(C)C)nc21 | 2.28 |
| CCn1c(=O)ccc2cnc(Nc3ccc(O)c(OC)c3)nc21 | 2.74 |
| CCn1c(=O)ccc2cnc(Nc3cccc(F)c3)nc21 | 2.85 |
| CN1CCN(c2ccc(Nc3ncc4ccc(=O)n(CCOCc5ccccc5)c4n3)cc2)CC1 | 2.68 |
| O=c1ccc2cnc(Nc3ccccc3)nc2n1C1CCCCCC1 | 3.74 |
| CCn1c(=O)ccc2cnc(NC(C)C)nc21 | 2.36 |
| CCn1c(=O)ccc2cnc(Nc3ccccc3)nc21 | 3.21 |

| Compound | log(10'6/IC50) |
| --- | --- |
| CCN(CC)CCOc1ccc(Nc2ncc3ccc(=O)n(CC)c3n2)cc1 | 3.8 |
| CCn1c(=O)ccc2cnc(Nc3ccc(O)cc3)nc21 | 3.23 |
| O=c1ccc2cnc(Nc3ccccc3)nc2n1Cc1ccccc1 | 3.03 |
| CC(C)Cn1c(=O)ccc2cnc(Nc3ccccc3)nc21 | 3.53 |
| CCn1c(=O)ccc2cnc(Nc3cccc(OC(F)(F)C(F)F)c3)nc21 | 2.11 |
| CCNc1ncc2ccc(=O)n(CC)c2n1 | 1.92 |
| COCn1c(=O)ccc2cnc(Nc3ccccc3)nc21 | 2.38 |
| CN1CCN(c2ccc(Nc3ncc4ccc(=O)n(-c5ccccc5)c4n3)cc2)CC1 | 3.76 |
| CCn1c(=O)ccc2cnc(Nc3ccc(N4CCN(C)CC4)cc3)nc21 | 4.07 |
| O=c1ccc2cnc(Nc3ccccc3)nc2n1[C@H]1C[C@H]2CC[C@H]1C2 (relative stereo) | 4.42 |
| CN1CCN(c2ccc(Nc3ncc4ccc(=O)n(C5CCCCC5)c4n3)cc2)CC1 | 5.4 |
| CN1CCN(c2ccc(Nc3ncc4ccc(=O)n([C@H]5C[C@H]6CC[C@H]5C6)c4n3)cc2)CC1 (relative stereo) | 5.22 |
| CC(C)n1c(=O)ccc2cnc(Nc3ccccc3)nc21 | 3.84 |
| CCOCCn1c(=O)ccc2cnc(Nc3ccccc3)nc21 | 2.11 |
| CCN(CC)CCOc1ccc(Nc2ncc3ccc(=O)n([C@H]4C[C@H]5CC[C@H]4C5)c3n2)cc1 (relative stereo) | 3.35 |
| CCn1c(=O)ccc2cnc(Nc3cccc(OC)c3)nc21 | 1.4 |
| CCn1c(=O)ccc2cnc(Nc3ccc(OC)cc3)nc21 | 3.22 |
| CCn1c(=O)ccc2cnc(Nc3ccc(-n4cccc4)cc3)nc21 | 2.56 |
| CCC(C)n1c(=O)ccc2cnc(Nc3ccccc3)nc21 (centres undefined) | 3.72 |
| Cn1c(=O)ccc2cnc(Nc3ccccc3)nc21 | 2.26 |
| CCn1c(=O)ccc2cnc(NCc3ccccc3)nc21 | 1.4 |
| O=c1ccc2cnc(Nc3ccccc3)nc2n1C1CCCCC1 | 4.33 |
| O=c1ccc2cnc(Nc3ccccc3)nc2n1-c1ccccc1 | 2.78 |
| COCCn1c(=O)ccc2cnc(Nc3ccccc3)nc21 | 2.54 |
| CC(C)CCn1c(=O)ccc2cnc(Nc3ccc(N4CCN(C)CC4)cc3)nc21 | 4.89 |
| COC(=O)Cn1c(=O)ccc2cnc(Nc3ccccc3)nc21 | 1.51 |
| CCN(CC)CCOc1ccc(Nc2ncc3ccc(=O)n(C4CCCCC4)c3n2)cc1 | 4.96 |
